This is an account of results in patent publication US9783521B2, “PDE10 inhibitors and related compositions and methods” (Omeros Corporation, priority 2008, dated 2017).

The term IC50 denotes the midpoint of a concentration-inhibition curve.

A value given as a limit tells only on which side of the number the result lay.

The target of one experiment is T1, recombinant human PDE 10A1 (Homo sapiens, UniProt Q9Y233).
T1 construct: made in house; host or cells: Sf9 insect cells, baculoviral system
T1 sequence (Q9Y233 1-779 isoform Q9Y233-1): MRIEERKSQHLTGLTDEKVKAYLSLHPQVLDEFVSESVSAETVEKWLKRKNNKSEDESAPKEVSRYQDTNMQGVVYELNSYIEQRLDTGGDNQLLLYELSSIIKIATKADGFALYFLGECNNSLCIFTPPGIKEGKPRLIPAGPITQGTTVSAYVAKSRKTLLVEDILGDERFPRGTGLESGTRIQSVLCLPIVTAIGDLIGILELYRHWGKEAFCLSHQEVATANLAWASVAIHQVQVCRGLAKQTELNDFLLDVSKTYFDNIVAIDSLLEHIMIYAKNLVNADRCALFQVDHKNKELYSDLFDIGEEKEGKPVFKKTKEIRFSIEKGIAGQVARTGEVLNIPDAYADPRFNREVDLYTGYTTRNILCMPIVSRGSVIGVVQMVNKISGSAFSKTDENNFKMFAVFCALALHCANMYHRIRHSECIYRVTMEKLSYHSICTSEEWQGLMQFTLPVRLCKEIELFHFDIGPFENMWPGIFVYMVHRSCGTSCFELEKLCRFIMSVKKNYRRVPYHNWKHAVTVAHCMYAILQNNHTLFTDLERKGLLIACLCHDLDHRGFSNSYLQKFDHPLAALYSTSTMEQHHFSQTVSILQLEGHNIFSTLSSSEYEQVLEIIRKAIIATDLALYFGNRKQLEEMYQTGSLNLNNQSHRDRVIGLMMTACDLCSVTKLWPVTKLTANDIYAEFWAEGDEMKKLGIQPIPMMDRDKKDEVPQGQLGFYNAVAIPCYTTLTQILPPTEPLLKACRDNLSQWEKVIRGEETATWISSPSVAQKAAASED
Nature of the experiment: PDE10 biochemical assay (two-step Thompson and Appleman method or SPA).
Conditions: not given
Here is the method:
After the appropriate incubation time, the reaction is terminated by heating. The mixture is then subjected to treatment with snake venom phosphatase. […] IC50 values can be calculated by performing the experiment at several concentrations using standard graphical means. A detailed description of the actual technique used for IC50 assays as set forth in following Examples.
The phosphodiesterase (PDE) assay was performed using recombinant human PDE 1A3, 2A3, 3 catalytic region, 4 catalytic region, 5 catalytic region, 7A, 8A, 9A2, 10A1 and 11A1 enzymes expressed in a baculoviral system using Sf9 cells. PDE activity was measured using a modification of the two-step method of Thompson and Appleman described above which was adapted for 96 well plate format. […] Reactions were initiated with enzyme and incubated with (^3H)-substrate and substance for 20 minutes at 30° C. The reaction was terminated by denaturing the enzyme (heating the reaction to 70° C. for 2 minutes). The reaction was then cooled at 4° C. for 10 minutes before the addition of snake venom (Crotalus atrox, 0.2 mg/ml) for 10 minutes at 30° C., thus allowing non-specific hydrolysis of the tritiated substrate. Separation of the remaining unhydrolysed cyclic nucleotide was achieved by a batch binding of the mixture to activated Dowex (200 μl) anion exchange resin. The anion exchange resin bound the charged nucleotides, leaving only hydrolysed (^3H) substrate in the soluble fraction. The soluble fraction (50 μl) was then added to microscint-20 (200 μl) and counted on a Top Count Plate reader. Radioactivity units were plotted against inhibitor concentration and IC50 values obtained using Graph Pad Prism software.
Alternatively, phosphodiesterase activity was measured by scintillation proximity assay (SPA) with [^3H]-cGMP as substrate. Purified PDE10 was diluted and stored in 25 mM Tris-Cl (pH 8.0)/100 mM NaCl/0.05% Tween 20/50% glycerol/3 mM DTT. Assays contained (final concentrations): 50 mM Tris-Cl (pH 7.5)/8.3 mM MgCl2/1.7 mM EGTA/0.5 mg/ml BSA/5% DMSO and 2 ng PDE10 in a final volume of 0.1 mL. Inhibition was evaluated at 8 concentrations in duplicate. Reactions were initiated by addition of enzyme and were terminated after 20 minutes at 30° C. by the addition of 50 μl of SPA beads containing Zn^++. The mixture was shaken, allowed to settle for 3 hours, and counted in a Wallac plate counter. Results (net cpm) were fitted to a four parameter logistic model using Excel Solver®.
Regarding `COc1ccc(/C=N/N(C)C(=O)C(OC)c2ccccc2)cc1OC` (stereo not shown) [Compound 12-70, (E)-N′-(3,4-Dimethoxybenzylidene)-2-methoxy-N-methyl-2-phenylacetohydrazide], the IC50 is at most 1 µM.
On the same count and under the same terms, the figure for `CCOc1cc(/C=N/NC(=O)C(OC)c2ccc(Cl)cc2)ccc1OC` (stereo not shown) [Compound 12-7] is at most 1 µM.

Still in this experiment, the particulars now being: PDE10 inhibition; read-out: IC50.
With `COc1cc(/C=N/NC(=O)C(OC)c2cc3ccccc3s2)cc(OC)c1OC` (stereo not shown) [Compound 8-1, (E)-2-(Benzo[b]thiophen-2-yl)-2-methoxy-N′-(3,4,5-trimethoxybenzylidene)acetohydrazide], the IC50 is at most 1 µM.
For `COc1ccc(/C=N/NC(=O)C(OC)c2ccc3ccccc3c2)cc1OC1CCCC1` (stereo not shown) [Compound 12-18], the IC50 is at most 1 µM.
Turning to `COc1cc(/C=N/NC(=O)C(OC)c2ccc(Cl)cc2)cc(C#N)c1OC` (stereo not shown) [Compound 12-14], the IC50 is at most 1 µM.
Still for that read-out and setting: the figure for `CCOc1cc(/C=N/NC(=O)C(OC)c2ccc(Cl)cc2)cc(Cl)c1OC` (stereo not shown) [Compound 12-5] is at most 1 µM; for `COc1ccc(/C=N/NC(=O)C(c2ccccc2)C(C)C)cc1OC` (stereo not shown) [Compound 9-1, (E)-N′-(3,4-Dimethoxybenzylidene)-3-methyl-2-phenylbutanehydrazide] it is at most 1 µM; for `COc1cc(/C=N/NC(=O)C(OC)c2ccc(Cl)cc2)cc(OC)c1Br` (stereo not shown) [Compound 12-12] it is at most 1 µM.
On the same count and under the same terms, then `COc1cc(/C=N/NC(=O)C(OC)c2ccnc3ccccc23)cc(OC)c1OC` (stereo not shown) [Compound 12-56], with at most 1 µM.
On the same count and under the same terms, the figure for `COc1ccc(/C=N/NC(=O)C(OC)c2ccc3ccccc3c2)cc1OC` (stereo not shown) [Compound 12-23] is at most 1 µM; for `COc1cc(/C=N/NC(=O)C(OC)c2ccc(N(C)C)cc2)cc(OC)c1OC` (stereo not shown) [Compound 7-1, (E)-2-(4-(Dimethylamino)phenyl)-2-methoxy-N′-(3,4,5-trimethoxybenzylidene)acetohydrazide] it is at most 1 µM.
In the case of `COc1cc(Cl)c(/C=N/NC(=O)C(OC)c2ccc3c(c2)OCCO3)cc1OC` (stereo not shown) [Compound 12-83], the IC50 was at most 1 µM.
The same measure, in the same setting: the figure for `CCOc1cc(/C=N/NC(=O)C(OC)c2ccc(Cl)cc2)cc(Br)c1OC` (stereo not shown) [Compound 12-2] is at most 1 µM; for `COc1ccc(/C=N/NC(=O)Cc2ccc(OC)c(OC)c2)cc1OC` [Compound 12-90] it is at most 1 µM; for `COc1cc(/C=N/NC(=O)C(OC)c2cccc(N(C)C)c2)cc(OC)c1O` (stereo not shown) [Compound 12-124] it is at most 1 µM.
As to `COc1cc(/C=N/NC(=O)C(OC)c2ccc3c(c2)OCO3)cc(Br)c1OC` (stereo not shown) [Compound 12-116], the IC50 was at most 1 µM.
The same measure, in the same setting: the figure for `CCOC(C(=O)N/N=C/c1cc(OC)c(OC)c(OC)c1)c1ccc2c(c1)OCCO2` (stereo not shown) [Compound 12-88] is at most 1 µM; for `COc1ccc(/C=N/NC(=O)C(OC)c2ccc(-n3cccn3)cc2)cc1OC` (stereo not shown) [Compound 12-155] it is at most 1 µM.
Turning to `COc1cc(/C=N/NC(=O)C(c2ccccc2)c2ccccc2)cc(OC)c1OC` [Compound 3-1, (E)-2,2-Diphenyl-N′-(3,4,5-trimethoxybenzylidene)acetohydrazide], the IC50 is at most 1 µM.
Still for that read-out and setting: the figure for `COc1cc(/C=N/NC(=O)C(OC)c2ccccc2)ccc1C` (stereo not shown) [Compound 12-20] is at most 1 µM; for `CCOC(C(=O)N/N=C/c1cc(OC)c(Br)c(OC)c1)c1cccc2c1OCCO2` (stereo not shown) [Compound 12-131] it is at most 1 µM; for `COc1cc(/C=N/NC(=O)C(OC)c2ccc(Cl)cc2)cc(OC)c1OC` (stereo not shown) [Compound 12-15] it is at most 1 µM.
Still for that read-out and setting: the figure for `CCOC(C(=O)N/N=C/c1cc(Br)c(OC)c(OC)c1)c1ccc2c(c1)OCCN2C` (stereo not shown) [Compound 12-86] is at most 1 µM; for `COc1cc(/C=N/NC(=O)C(OC)c2ccc(Cl)cc2)cc(Cl)c1OC` (stereo not shown) [Compound 12-6] it is at most 1 µM.
On to `COc1cc(/C=N/NC(=O)C(OC)c2ccc(F)cc2)cc(OC)c1Br` (stereo not shown) [Compound 12-1], for which the IC50 is at most 1 µM.
Still for that read-out and setting: then `COCCOC(C(=O)N/N=C/c1cc(OC)c(OC)c(OC)c1)c1ccc2ccccc2c1` (stereo not shown) [Compound 12-45], with at most 1 µM.
Turning to `COCCOC(C(=O)N/N=C/c1cc(OC)c(Br)c(OC)c1)c1ccc2ccccc2c1` (stereo not shown) [Compound 12-43], the IC50 is at most 1 µM.
Take `COc1cc(/C=N/NC(=O)C(OC)c2ccc(Cl)cc2)cc(Br)c1OC` (stereo not shown) [Compound 12-4]: the IC50 was at most 1 µM.
On the same count and under the same terms, the figure for `COc1cc(/C=N/NC(=O)C(OC)c2ccnc3ccccc23)cc(Br)c1OC` (stereo not shown) [Compound 12-58] is at most 1 µM; for `CCC(C(=O)N/N=C/c1ccc(OC)c(OC)c1)c1ccccc1` (stereo not shown) [Compound 12-71] it is at most 1 µM.
In the case of `CCOC(C(=O)N/N=C/c1cc(OC)c(Cl)c(OC)c1)c1cccc2ncccc12` (stereo not shown) [Compound 12-119], the IC50 was at most 1 µM.
For `COc1cc(/C=N/NC(=O)C(OCCN(C)C)c2ccc3c(c2)OCO3)cc(OC)c1Br` (stereo not shown) [Compound 12-109], the IC50 was at most 1 µM.
Still for that read-out and setting: the figure for `COc1cc(/C=N/N=C(\OC(=O)C(C)(C)C)C(OC)c2cccc3ccccc23)cc(OC)c1OC` (stereo not shown) [Compound 5-1, (1Z, N′E)-2-Methoxy-2-(naphthalen-1-yl)-N′-(3,4,5-trimethoxybenzylidene)acetohydrazonic pivalic anhydride] is at most 1 µM; for `COc1cc(/C=N/NC(=O)C(OC)c2cccc(N(C)C)c2)cc(Br)c1OC` (stereo not shown) [Compound 12-122] it is at most 1 µM.
On to `COc1cc(/C=N/NC(=O)C(OC)c2ccc3ccccc3c2)cc(OC)c1OC` (stereo not shown) [Compound 1-1, (E)-2-Methoxy-2-(naphthalen-2-yl)-N′-(3,4,5-trimethoxybenzylidene)acetohydrazide], for which the IC50 was at most 1 µM.
The same measure, in the same setting: the figure for `COc1cc(/C=N/NC(=O)C(OC)c2ccc(N3CCCC3)cc2)cc(OC)c1Cl` (stereo not shown) [Compound 12-126] is at most 1 µM; for `CCOc1ccc(/C=N/NC(=O)C(OC)c2ccccc2)cc1OCC` (stereo not shown) [Compound 12-26] it is at most 1 µM.
Still for that read-out and setting: then `COc1cc(/C=N/NC(=O)C(Oc2ccccc2)c2ccccc2)cc(OC)c1OC` (stereo not shown) [Compound 12-41], with at most 1 µM; and `COc1ccc(/C=N/NC(=O)C(OC)c2ccc3ccccc3c2)cc1OC(F)F` (stereo not shown) [Compound 12-16], with at most 1 µM; and `COc1cc(/C=N/NC(=O)C(OC)c2ccccc2)cc(OC)c1O` (stereo not shown) [Compound 12-24], with at most 1 µM.
Regarding `CCOC(C(=O)N/N=C/c1cc(Br)c(OC)c(OC)c1)c1cccc2c1OCCO2` (stereo not shown) [Compound 12-129], the IC50 is at most 1 µM.
For `CCOC(C(=O)N/N=C/c1cc(OC)cc(OC)c1)c1cccc2ncccc12` (stereo not shown) [Compound 12-120], the IC50 is at most 1 µM.
Still for that read-out and setting: then `COCCOC(C(=O)N/N=C/c1cc(Br)c(OC)c(OC)c1)c1ccc2ccccc2c1` (stereo not shown) [Compound 12-48], with at most 1 µM.
Still for that read-out and setting: the figure for `CCOC(C(=O)N/N=C/c1cc(Br)c(OC)c(OC)c1)c1ccc2c(c1)OCCO2` (stereo not shown) [Compound 12-135] is at most 1 µM; for `CCOC(C(=O)N/N=C/c1cc(Cl)c(OC)c(OC)c1)c1ccc2c(c1)OCCN2C` (stereo not shown) [Compound 12-85] it is at most 1 µM; for `COc1ccc(/C=N/NC(=O)C(OC)c2ccc(Cl)cc2)cc1OC` (stereo not shown) [Compound 12-10] it is at most 1 µM.
On the same count and under the same terms, then `COc1cc(/C=N/NC(=O)Cc2ccccc2)cc(OC)c1OC` [Compound 12-89], with at most 1 µM; and `CCOC(C(=O)N/N=C/c1cc(OC)c(Br)c(OC)c1)c1ccc2c(c1)OCCO2` (stereo not shown) [Compound 12-87], with at most 1 µM.
Take `COc1cc(/C=N/NC(=O)C(OC)c2ccc(Cl)cc2)ccc1C` (stereo not shown) [Compound 12-8]: the IC50 was at most 1 µM.
For `COc1cc(/C=N/N(CC(F)(F)F)C(=O)C(OC)c2ccc(-n3cccn3)cc2)cc(OC)c1Br` (stereo not shown) [Compound 11-1, (E)-2-(4-(1H-pyrazol-1-yl)phenyl)-N′-(4-bromo-3,5-dimethoxybenzylidene)-2-methoxy-N-(2,2,2-trifluoroethyl)acetohydrazide], the IC50 was at most 1 µM.
Same read-out and setting: then `CCOC(C(=O)N/N=C/c1cc(OC)c(C)c(OC)c1)c1cccc2c1OCCO2` (stereo not shown) [Compound 12-128], with at most 1 µM; and `COc1cc(/C=N/NC(=O)C(OC)c2cc3ccccc3s2)cc(Cl)c1OC` (stereo not shown) [Compound 12-42], with at most 1 µM; and `COc1ccc(/C=N/NC(=O)C(SC)c2ccccc2)cc1OC` (stereo not shown) [Compound 4-1, (E)-N′-(3,4-Dimethoxybenzylidene)-2-(methylthio)-2-phenylacetohydrazide], with at most 1 µM.
Turning to `COc1cc(/C(C)=N/NC(=O)C(OC)c2ccc(-n3cccn3)cc2)cc(OC)c1OC` (stereo not shown) [Compound 12-144], the IC50 is at most 1 µM.
Turning to `COc1cc(/C=N/NC(=O)C(OC)c2ccccc2)cc(OC)c1OC` (stereo not shown) [Compound 12-17], the IC50 was at most 1 µM.
